Patent publication US5902794A (priority 1997, dated 1999)
Like-named read-outs stand apart in the source and are kept apart here.

Experiments:
[1] = system: hormone-independent breast and colon cancer cell lines; assay: growth inhibition of hormone-independent breast and colon cancer lines; type: cell-based, human; details: for growth inhibitory effect: alone; for enhancement of the effect of the site-selective compounds: in combination with the site-selective compounds
Experimental: (§1) All breast cancer cell lines were grown in IMEM supplemented with 10% fetal bovine serum, 20 mM HEPES, penicillin-streptomycin, and extra glutamine. Colon carcinoma cell lines were grown in EMEM supplemented with 10% FBS, EMEM, NEAA, HEPES 20 mM, extra glutamine, and penicillin-streptomycin. The cells were grown at 37° C. in humidified incubators in an atmosphere of 5% CO2.
(§2) For cell growth experiments, 2-3×10^5 cells/60 mm dish were seeded, and 24 hours later (Day 0), the medium was removed, and fresh medium and the additives were added then and every 48 hours thereafter The compounds of the present invention were added using 100× concentrated stock solutions. At desired times, cell counts in duplicate were performed on a Coulter counter after harvesting the cells with gentle trypsinization.

[2] = system: leukemic cell lines (HL-60, K-562, myc-K562, Molt-4); assay: growth inhibition and viability of leukemic cell lines; type: cell-based, human; details: for growth inhibitory effect: alone; for enhancement of the analog effect: in combination with the analogue
[3] = system: cultured human fibroblasts; details: cited from earlier work
[4] = system: cells; assay: growth inhibition by 8-Cl-AMP; type: cell-based; details: as high as 100 microM
[5] = system: MCF-7 ras breast cancer cell line; assay: synergistic growth inhibition by C-6 and C-8 analogue combination; type: cell-based; details: Homo sapiens, MCF7, alone, read-out: percentage growth inhibition of analogue added alone
Experimental: as §1, §2
Synergism quotient was defined as the net growth inhibitory effect of the analogue combination divided by the sum of the net analogue effects on growth inhibition A quotient of >1 indicates a synergistic effect, while a quotient of <1 indicates an antagonistic effect.
Synergism of growth inhibition was determined by treatment of
cells with C-6 analogues and C-8 analogues alone and in combination at
Day 0 and Day 2 and counting the cell number at Day 4

[6] = system: breast and colon cancer cells; assay: effect on cell morphology; type: cell-based, human
Source text: The photographs were taken on Day 4, ×160.
Furthermore, the synergistic growth inhibitory effect of C-6 and C-8 analogue combinations was also reflected in the change in the cell morphology.

[7] = system: R^II; details: cited from earlier work
[8] = system: R^I receptor; details: cited from earlier work
[9] = system: breast and colon cancer cell lines; assay: cell cycle progression of breast and colon cancer cell lines; type: cell-based, human; details: vs untreated control cells
Experimental: DNA histograms were generated on FACS II by using the DNA intercalating dye propidium iodide as described by Braylan et al. (Cytometry 2: 337-343, 1982). The percentage of cells in each cycle phase was calculated by using a PDP-11/34 computer and software as described by Neckers et al. (Mol. Cell. Biol. 6: 4244-4250, 1986).
A determination was made whether the reduced cell proliferation observed in the cancer cell lines after treatment with the compounds of the present invention is due to a specific block in one phase of the cell cycle.

[10] = system: R^I cAMP receptor protein (MDA-MB-231); assay: photoaffinity labelling of R^I cAMP receptor protein, MDA-MB-231; type: cell-based, human; details: 10 microM, 3 days; control 1.0
Experimental: (§3) M is marker proteins of known molecular weight.
(§4) The incubations were carried out at 23° C. for 60 minutes in 96-well immunoplates. The reaction mixtures were then irradiated for 30 seconds at 254 nm, placing a Mineralite UVS-11 hand lamp directly onto the plate. The samples were mixed with 25 microliters of 3× sample buffer (3% SDS, 15% beta-mercaptoethanol, 30 mM Tris, 30% glycerol, 1% bromophenol blue saturated solution), boiled for 3 minutes, and centrifuged at 700×g for five minutes. The samples containing 50-100 micrograms of protein were subjected to 0.05% SDS-12% PAGE. The gels were fixed, dried, and exposed to X-ray films overnight. The protein concentrations were determined by the method of Lowry et al., (J. Biol. Chem. 193: 265-275, 1951) with bovine serum albumin as standard.
(§5) The levels of the receptor proteins are expressed relative to the R^I level in the untreated control cells of MDA-MB-231 and LS-174T, which are each set equal to 1.0 O.D.; the scale was expanded to differentiate the lower intensity bands.

[11] = system: R^II cAMP receptor protein (MDA-MB-231); assay: photoaffinity labelling of R^II cAMP receptor protein, MDA-MB-231; type: cell-based, human; details: 10 microM, 3 days; relative to control R^I
Experimental: as §3, §4, §5

[12] = system: R^I cAMP receptor protein (LS-174T); assay: photoaffinity labelling of R^I cAMP receptor protein, LS-174T; type: cell-based, human; details: 10 microM, 3 days; control 1.0
Experimental: as §3, §4, §5

[13] = system: R^II cAMP receptor protein (LS-174T); assay: photoaffinity labelling of R^II cAMP receptor protein, LS-174T; type: cell-based, human; details: 10 microM, 3 days; relative to control R^I
Experimental: as §3, §4, §5

[14] = system: MDA-MB-231; assay: growth of MDA-MB-231 cells; type: cell-based; details: Homo sapiens, MDA-MB-231, 72 h; 10 microM, 3 days
Experimental: as §3, §1, §2

[15] = system: LS-174T; assay: growth of LS-174T cells; type: cell-based; details: Homo sapiens, LS174T, 72 h; 10 microM, 3 days
Experimental: as §3, §1, §2

[16] = system: R^I and R^II cAMP receptor proteins in breast (MDA-MB-231) and colon (LS-174T) cancer cells; assay: R^I and R^II cAMP receptor protein levels in breast and colon cancer lines (FIG. 6); type: cell-based, human
Experimental: as §3, §4

[17] = system: hormone-dependent breast cancer lines; details: millimolar concentrations; previously reported; cited from earlier work
[18] = system: breast (MCF-7) and (LS-174T) colon cancer cell lines; assay: growth inhibition of breast (MCF-7) and colon (LS-174T) cancer cell lines; type: cell-based, human; details: 50 micromolar
[19] = system: disseminated neuroblastomas; details: in a combined drug regimen; cited from earlier work
[20] = system: YAC lymphoma cell; details: mouse, in vivo; cited from earlier work

## CC(C)Cn1c(=O)n(C)c(=O)c2[nH]cnc21 [1-methyl-3-isobutylxanthine]
[1]; 0.5 mM
  growth inhibitory effect: little or no growth inhibitory effect
[1]
  enhancement of the effect of the site-selective compounds: could not enhance the effect
[2]; 0.5 mmol/L
  growth inhibitory effect: little or no growth inhibitory effect
[2]
  enhancement of the analog effect: could not enhance the analog effect
[3]; added during first eight hours after serum addition
  DNA synthesis: subsequent DNA synthesis was not delayed
[3]; added more than eight hours after serum addition
  DNA synthesis: inhibitory

## Nc1ncnc2c1nc(Cl)n2[C@@H]1O[C@H](COP(=O)(O)O)[C@@H](O)[C@H]1O [8-Cl-AMP]
[4]
  growth inhibition: no appreciable growth inhibition

## Nc1ncnc2c1nc(Br)n2[C@@H]1O[C@@H]2COP(=O)(O)O[C@H]2[C@H]1O [8-bromo-cAMP]
[2]
  potency relative to 8-Cl-cAMP, times less potent: 5 to 20 times

## CNc1nc2c(N)ncnc2n1[C@@H]1O[C@@H]2COP(=O)(O)O[C@H]2[C@H]1O [8-methylamino-cAMP]
[5]
  inhibition at 1 µM: 10%
[2]
  potency relative to 8-Cl-cAMP, times less potent: 5 to 20 times

## CSc1nc2c(N)ncnc2n1[C@@H]1O[C@@H]2COP(=O)(O)O[C@H]2[C@H]1O [8-methylthio-cAMP]
[5]
  inhibition at 1 µM: 15%
[6]; 100 microM, three to four days
  morphological change: induced the morphological change
[2]
  potency relative to 8-Cl-cAMP, times less potent: 5 to 20 times

## Nc1ncnc2c1nc(N1CCCCC1)n2[C@@H]1O[C@@H]2COP(=O)(O)O[C@H]2[C@H]1O [8-piperidino-cAMP, reference compound]
[7]
  site selectivity of binding, R^II: selectively binds to site 1
[8]
  site selectivity of binding, R^I: binds to site 2

## O=C(Nc1ncnc2c1ncn2[C@@H]1O[C@@H]2COP(=O)(O)O[C@H]2[C@H]1O)c1ccccc1 [N^6 -benzoyl-cAMP]
[5]
  inhibition at 0.5 µM: 10%

## O=P1(O)OC[C@H]2O[C@@H](n3cnc4c(NCc5ccccc5)ncnc43)[C@H](O)[C@@H]2O1 [N^6 -benzyl-cAMP]
[5]
  inhibition at 0.5 µM: 15%
[6]; 0.5 microM alone, four days
  morphological change: did not induce a change in the cell morphology
[6]; 50 microM, three to four days
  morphological change: induced the morphological change
[9]
  fractions of cells in G1, S and G2/M phases, in words: not appreciably different
[10]
  R^I relative level: 0.25 ± 0.03
[11]
  R^II relative level: 0.07 ± 0.01
[12]
  R^I relative level: 0.20 ± 0.02
[13]
  R^II relative level: 0.25 ± 0.02
[14]
  activity at 10 µM: 55%
[15]
  activity at 10 µM: 35%
[16]; densitometry
  increase in the ratio of R^II to R^I: two- to three-fold increase
[16]; three days, 10 microM
  48,000 R^I receptor protein, in words: concomitant decrease
  52,000 MW (R^II) receptor protein, in words: increased appreciably

## CCCC(=O)Nc1ncnc2c1ncn2[C@@H]1O[C@@H]2COP(=O)(O)O[C@H]2[C@H]1O [N^6 -butyryl cAMP]
[17]
  growth inhibition, hormone-dependent breast cancer lines: growth inhibition only in the hormone-dependent breast cancer lines

## O=P1(O)OC[C@H]2O[C@@H](n3c(Sc4ccc(Cl)cc4)nc4c(Nc5ccccc5)ncnc43)[C@H](O)[C@@H]2O1 [N^6-phenyl-8-p-chlorophenylthio-cAMP]
[18]
  growth inhibition, in words: most potent growth inhibition among the C-6,-8 disubstituted analogues

## COc1ccc(Cc2nccc3cc(OC)c(OC)cc23)cc1OC [papaverine]
[19]
  clinical result: promising results

## Cn1c(=O)c2[nH]cnc2n(C)c1=O [theophylline]
[1]; 0.1 mM
  growth inhibitory effect: little or no growth inhibitory effect
[1]
  enhancement of the effect of the site-selective compounds: could not enhance the effect
[2]; 0.1 mmol/L
  growth inhibitory effect: little or no growth inhibitory effect
[2]
  enhancement of the analog effect: could not enhance the analog effect

## cholera toxin
[20]
  inhibition of YAC lymphoma cell proliferation: almost complete inhibition
